Data on 13 molecules can be found in ChEMBL document CHEMBL4334505, “Tri- and Diterpenoids from Stillingia loranthacea as Inhibitors of Zika Virus Replication” (J Nat Prod, 2019).

Each structure is given as a SMILES string. The source made the active and inactive calls. The calls are words filed in the database; no cut-off is given here.

The nature of data set [1]: (§1) Cytotoxicity against African green monkey Vero cells assessed as reduction in cell viability measured after 1 hr by MTT assay. Format: cell-based. The settings on record: chlorocebus sabaeus, Vero cells.
Data set [2] deals with Vero. The description is as §1. The settings on record: chlorocebus sabaeus, vero, 1 h. In kind it is cell-based.
Data set [3] deals with Zika virus. Nature of the data set: Antiviral activity against Zika virus PE243 infected in African green monkey Vero cells assessed as reduction in viral replication by measuring viral titer at CC20 incubated for 5 days by standard TCID50 method. In kind it is functional, organism-based.
Data set [4] relates to Zika virus. Description: Antiviral activity against Zika virus PE243 infected in African green monkey Vero cells assessed as reduction in viral replication by measuring viral titer per ml of cells at CC20 incubated for 5 days by standard TCID50 method (reference value: 6.7). Format: functional.
A short description of data set [5]: (§2) Cytotoxicity against African green monkey Vero cells assessed as reduction in cell viability measured after 120 hrs by MTT assay. The settings on record: chlorocebus sabaeus, Vero cells. In kind it is cell-based.
Data set [6] deals with Vero. The description is as §2. The settings on record: chlorocebus sabaeus, vero, 120 h. Format: cell-based.

Regarding `CCCCCCCCCCCCCCCC(=O)O[C@@H]1[C@@H](C)[C@]2(O)[C@@H]3C=C(C)C(=O)[C@@H]3CC(C=O)=C[C@H]2[C@@H]2C(C)(C)[C@]12OC(C)=O`, the CC50 at 1 h in data set [1] was in the range of 24.6 to 848 µM. Also, the CC20 in the data set with Vero [2] is 8.7 to 328 µM.

Take `CCCCCCCC/C=C\CCCC(=O)O[C@@]12C[C@@H](C)[C@@]3(O)[C@@H](C=C(CO)C[C@]4(O)C(=O)C(C)=C[C@@H]34)[C@@H]1C2(C)C`: in the data set on Zika virus [3], the inhibition result was “Active”. Also, in the data set on Zika virus [4], the “log10 TCID50” value is given as 1.8. Moreover, the CC50 at 1 h in data set [1] fell in the range of 24.6 to 848 µM. Further, the CC20 in the data set on Vero [2] lay in the range of 8.7 to 328 µM.

For the molecule `CSc1ncnc2c1ncn2[C@@H]1O[C@H](CO)[C@@H](O)[C@H]1O`, the CC50 at 120 h in data set [5] was 291 µM. In addition, in the data set on Vero [6], the CC20 stood at 60.5 µM. In the data set with Zika virus [4], the “log10 TCID50” value turned out to be 5.4.

For `CC/C(C)=C/C(=O)O[C@@H]1[C@H](C)C[C@H]2O[C@]1(O)[C@@H](O)[C@@]1(C)CC[C@H](O1)C(C)(C)/C=C/[C@H](C)C2=O`, in the data set on Vero [2], the CC20 was 8.7 to 328 µM.

For `CC1(C)CC[C@@H]2C(=O)C=C3[C@]4(C)CC[C@@H]5[C@](C)(CC[C@@H](OC(=O)/C=C/c6ccccc6)[C@@]5(C)C(=O)O)[C@H]4CC[C@@]3(C)[C@@H]2C1`, in the data set with Zika virus [3], the inhibition result was “Active”. In addition, the “log10 TCID50” value in the data set on Zika virus [4] is 1.7. For the same molecule, in data set [1], the CC50 at 1 h was 24.6 to 848 µM. Besides, the CC20 in the data set on Vero [2] was in the range of 8.7 to 328 µM.

Regarding `CCCCCCCCCCCCCCCC(=O)O[C@@H]1[C@@H](C)[C@]2(O)[C@@H]3C=C(C)C(=O)[C@@H]3CC(CO)=C[C@H]2[C@@H]2C(C)(C)[C@]12OC(C)=O`, in the data set on Zika virus [3], the inhibition entry was “Active”. For the same molecule, the CC50 at 1 h in data set [1] lay within 24.6 to 848 µM. In the data set on Vero [2], the CC20 fell in the range of 8.7 to 328 µM.

Consider `CCCCCCCCCCCC(=O)O[C@@]12C[C@@H](C)[C@@]3(O)[C@@H](C=C(CO)C[C@]4(O)C(=O)C(C)=C[C@@H]34)[C@@H]1C2(C)C`, for which, in the data set on Zika virus [3], the inhibition result is “Active”. The CC50 at 1 h in data set [1] was 24.6 to 848 µM. The CC20 in the data set on Vero [2] is 8.7 to 328 µM.

Consider `CCCCCCCCCCCC(=O)O[C@@]12C[C@@H](C)[C@@]3(O)[C@@H](C=C(C=O)C[C@]4(O)C(=O)C(C)=C[C@@H]34)[C@@H]1C2(C)C`, for which the CC50 at 1 h in data set [1] fell in the range of 24.6 to 848 µM. Moreover, the CC20 in the data set on Vero [2] lay in the range of 8.7 to 328 µM.

In the case of `CC(=O)O[C@H](C)/C(C)=C/C(=O)O[C@@H]1[C@H](C)C[C@H]2O[C@]1(O)[C@@H](O)[C@@]1(C)CC[C@H](O1)C(C)(C)/C=C/[C@H](C)C2=O`, the CC20 with Vero [2] was 8.7 to 328 µM.

`CCCCCCCCCCCCCC(=O)O[C@@]12C[C@@H](C)[C@@]3(O)[C@@H](C=C(CO)C[C@]4(O)C(=O)C(C)=C[C@@H]34)[C@@H]1C2(C)C`: the inhibition result with Zika virus [3] is “Active”. The CC50 at 1 h in data set [1] is 24.6 to 848 µM. Further, the CC20 in the data set on Vero [2] is 8.7 to 328 µM.

On to `CCCCCCCC/C=C\CCCC(=O)O[C@@]12C[C@@H](C)[C@@]3(O)[C@@H](C=C(C=O)C[C@]4(O)C(=O)C(C)=C[C@@H]34)[C@@H]1C2(C)C`, for which the CC50 at 1 h in data set [1] was in the range of 24.6 to 848 µM. For the same molecule, in the data set on Vero [2], the CC20 lay in the range of 8.7 to 328 µM.

`CC1(C)CC[C@@H]2C(=O)C=C3[C@]4(C)CC[C@@H]5[C@](C)(CC[C@@H](OC(=O)c6ccccc6)[C@@]5(C)C(=O)O)[C@H]4CC[C@@]3(C)[C@@H]2C1`: the CC50 at 1 h in data set [1] lay in the range of 24.6 to 848 µM. The CC20 in the data set with Vero [2] fell in the range of 8.7 to 328 µM.

`C/C(=C\C(=O)O[C@@H]1[C@H](C)C[C@H]2O[C@]1(O)[C@@H](O)[C@@]1(C)CC[C@H](O1)C(C)(C)/C=C/[C@H](C)C2=O)C(C)O` (stereo partly specified): in the data set with Vero [2], the CC20 lay within 8.7 to 328 µM.
